In brackets after ≈: the same amount, converted by molar mass. Like-named read-outs stand apart in the source and are kept apart here.
What was measured:
[1] = Solubility determination in selected excipients (HPLC); type: physicochemical; settings: thermodynamic from solid
Protocol: The vial contents were mixed for 30 seconds using a VWR mini vortexter followed by sonication (Branson 1510) for 1 minutes. Vials were placed into a constant temperature bath (i.e., about 25° C.) and allowed to equilibrate for no less than 12 hours. The resulting suspensions were transferred to eppendorf tubes each equipped with a 0.2 μm nylon filter (Costar 8168) and were centrifuged for 10 minutes at 14,000 rpms. The supernatant from each eppendorf tube was collected and diluted with HPLC grade acetonitrile or methonal with appropriate dilution factor. Each solution was analyzed by an HPLC method.
As an example, the following HPLC assay was used to determine the aqueous solubility of 1-[3-(4-bromo-2-methyl-2H-pyrazol-3-yl)-4-methoxy-phenyl]-3-(2,4-difluoro-phenyl)-urea:
HPLC System: Waters 2795; Stationary phase: Xterra® column, MS C18, 3.5 μm, 4.6×50 mm; Mobile phase: Line A: 100% De-ionized-Millipore water; Line B: 1.0% NH4OH; Line C: 100% HPLC grade Acetonitrile; Gradient: A: 80% to 0% in 8 minute; B: 10% constant in 8 minute; C: 10% to 90% in 8 minute; Flow rate: 1.50 mL/min; Column temperature: 40° C.±5° C.; Sample temperature: 25° C.±5° C.
Photodiode Array Detector: Waters 2996 with UV lamp: 3D data collection; Start wavelength: 210 nm; end wavelength: 320 nm.
Processing wavelength: 220 nm.
Quantification was effected by comparison of the HPLC peak area for each test solution with the peak area taken from a standard plot of concentration versus peak area for standards of known concentration. As is conventional, the standard concentrations for 1-[3-(4-bromo-2-methyl-2H-pyrazol-3-yl)-4-methoxy-phenyl]-3-(2,4-difluoro-phenyl)-urea were selected to fall within a linear range of concentration versus absorbance for the UV detector employed. The standard concentration for 1-[3-(4-bromo-2-methyl-2H-pyrazol-3-yl)-4-methoxy-phenyl]-3-(2,4-difluoro-phenyl)-urea was diluted in serial fashion to obtain a calibration curve. Dilution was effected by adding the acetonitrile from mobile phase. Each saturated equilibrium solution for 1-[3-(4-bromo-2-methyl-2H-pyrazol-3-yl)-4-methoxy-phenyl]-3-(2,4-difluoro-phenyl)-urea obtained after filtering the test vial solutions was diluted with acetonitrile or methonal with appropriate dilution factor to reach the linear range of the standard plot.

[2] = Plasma pharmacokinetics in healthy male and female volunteers following oral administration of a capsule formulated dose; type: in vivo; settings: both sexes, human, capsule with Cremephor RH40
Protocol: Plasma pharmacokinetics for 1-[3-(4-bromo-2-methyl-2H-pyrazol-3-yl)-4-methoxy-phenyl]-3-(2,4-difluoro-phenyl)-urea were determined in healthy male and female volunteers following oral administration of a capsule formulated dose of 1-[3-(4-bromo-2-methyl-2H-pyrazol-3-yl)-4-methoxy-phenyl]-3-(2,4-difluoro-phenyl)-urea and Cremephor RH40.

[3] = biological target: 5-HT2A serotonin receptor (Homo sapiens, UniProt P28223); settings: cited from earlier work
5-HT2A serotonin receptor, sequence (P28223 whole entry): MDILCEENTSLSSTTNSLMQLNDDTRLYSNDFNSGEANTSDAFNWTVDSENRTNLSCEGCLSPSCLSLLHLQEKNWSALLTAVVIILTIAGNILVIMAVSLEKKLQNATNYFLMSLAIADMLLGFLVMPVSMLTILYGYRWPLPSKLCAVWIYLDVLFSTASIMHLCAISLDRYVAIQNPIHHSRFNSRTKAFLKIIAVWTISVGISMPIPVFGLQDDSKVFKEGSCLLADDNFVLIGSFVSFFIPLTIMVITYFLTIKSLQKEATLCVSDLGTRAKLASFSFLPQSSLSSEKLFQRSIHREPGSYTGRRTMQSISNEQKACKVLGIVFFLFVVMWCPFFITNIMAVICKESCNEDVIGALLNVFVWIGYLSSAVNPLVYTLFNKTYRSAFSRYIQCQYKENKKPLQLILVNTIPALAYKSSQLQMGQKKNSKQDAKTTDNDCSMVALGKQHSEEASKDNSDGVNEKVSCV

diabetic rats = settings: cited from earlier work
JC virus = settings: cited from earlier work
5-HT2A = 5-HT2A (Homo sapiens, UniProt P28223); settings: cited from earlier work
5-HT2A, sequence (P28223 whole entry): as above

[4] = glaucoma patients; cited from earlier work
[5] = patients, 24 months of treatment; cited from earlier work

Compound: COc1ccc(NC(=O)Nc2ccc(F)cc2F)cc1-c1c(Br)cnn1C [1-[3-(4-bromo-2-methyl-2H-pyrazol-3-yl)-4-methoxy-phenyl]-3-(2,4-difluoro-phenyl)-urea]
- solubility ([1]; 0.01 N HCl, 25 °C, pH 2, simulated gastric fluid, 0.01 N HCl (about pH 2), read-out: aqueous solubility): ≤ 0.01 mg/mL
- solubility ([1]; 0.01 N HCl, 25 °C, pH 2, simulated gastric fluid, at 25° C. in 0.01 N HCl (pH 2), read-out: Solubility): < 0.01 mg/mL
- solubility ([1]; 25 mM phosphate buffer, 25 °C, pH 7, aqueous buffer, at 25° C. in 25 mM Phosphate buffer (pH 7), read-out: Solubility): < 0.01 mg/mL
- solubility ([1]; 0.05% Tween 80 & 0.5% Methocel, 25 °C, aqueous with cosolvent or surfactant or cyclodextrin, at 25° C. in 0.05% Tween 80 & 0.5% Methocel, read-out: Solubility): < 0.01 mg/mL
- solubility ([1]; 1% Tween 80, 25 °C, aqueous with cosolvent or surfactant or cyclodextrin, at 25° C. in 1% Tween 80, read-out: Solubility): 0.4 mg/mL (≈ 0.915 mM)
- solubility ([1]; 5% Gum Arabic, 25 °C, aqueous with cosolvent or surfactant or cyclodextrin, at 25° C. in 5% Gum Arabic, read-out: Solubility): < 0.01 mg/mL
- solubility ([1]; 50% Captisol, 25 °C, aqueous with cosolvent or surfactant or cyclodextrin, at 25° C. in 50% Captisol, read-out: Solubility): 0.4 mg/mL (≈ 0.915 mM)
- solubility ([1]; Cremophor RH 40, 25 °C, organic solvent or mixture, at 25° C. in Cremophor RH 40, read-out: Solubility): 196 mg/mL (≈ 448 mM)
- solubility ([1]; Labrafil M 1944 CS, 25 °C, oil or lipid, at 25° C. in Labrafil M 1944 CS, read-out: Solubility): 29.9 mg/mL (≈ 68.4 mM)
- solubility ([1]; Labrafil M 2125 CS, 25 °C, oil or lipid, at 25° C. in Labrafil M 2125 CS, read-out: Solubility): 32.7 mg/mL (≈ 74.8 mM)
- solubility ([1]; Labrasol, 25 °C, oil or lipid, at 25° C. in Labrasol, read-out: Solubility): 348 mg/mL (≈ 796 mM)
- solubility ([1]; PEG 300, 25 °C, organic solvent or mixture, at 25° C. in PEG 300, no suspension observed, read-out: Solubility): > 150 mg/mL
- solubility ([1]; PEG 400, 25 °C, organic solvent or mixture, at 25° C. in PEG 400, read-out: Solubility): 377 mg/mL (≈ 861 mM)
- solubility ([1]; PEG 600, 25 °C, organic solvent or mixture, at 25° C. in PEG 600, no suspension observed, read-out: Solubility): > 325 mg/mL
- solubility ([1]; Softigen 767, 25 °C, oil or lipid, at 25° C. in Softigen 767, no suspension observed, read-out: Solubility): > 200 mg/mL
- solubility ([1]; Transcutol P, 25 °C, organic solvent or mixture, at 25° C. in Transcutol P, no suspension observed, read-out: Solubility): > 200 mg/mL
- solubility ([1]; Tween 20, 25 °C, organic solvent or mixture, at 25° C. in Tween 20, no suspension observed, read-out: Solubility): > 160 mg/mL
- solubility ([1]; Tween 80, 25 °C, organic solvent or mixture, at 25° C. in Tween 80, read-out: Solubility): 320 mg/mL (≈ 732 mM)
- solubility ([1]; deionized water, 25 °C, water, at 25° C. in Deionized water, read-out: Solubility): < 0.01 mg/mL
- solubility ([1]; deionized water, 25 °C, water, deionized water, read-out: aqueous solubility): ≤ 0.01 mg/mL
- solubility ([1]; phosphate buffer, 25 °C, pH 7, aqueous buffer, phosphate buffer (about pH 7), read-out: aqueous solubility): ≤ 0.01 mg/mL
- solubility ([1]; saline (0.9% NaCl solution), 25 °C, saline or isotonic, at 25° C. in Saline (0.9% NaCl solution), read-out: Solubility): < 0.01 mg/mL
- solubility ([1]; saline (about 0.9% NaCl solution), 25 °C, saline or isotonic, saline (about 0.9% NaCl solution), read-out: aqueous solubility): ≤ 0.01 mg/mL
- AUC(0-inf) ([2]; single oral dose 10 mg): 51 ng·h/mL
- Cmax ([2]; single oral dose 10 mg): 18 ng/mL
- Tmax ([2]; single oral dose 10 mg): 1.2 h
- AUC(0-inf) ([2]; single oral dose 20 mg): 181 ng·h/mL
- Cmax ([2]; single oral dose 20 mg): 58 ng/mL
- Tmax ([2]; single oral dose 20 mg): 1.2 h
- AUC(0-inf) ([2]; single oral dose 40 mg): 395 ng·h/mL
- Cmax ([2]; single oral dose 40 mg): 113 ng/mL
- Tmax ([2]; single oral dose 40 mg): 1.5 h
- AUC(0-inf) ([2]; single oral dose 80 mg): 612 ng·h/mL
- Cmax ([2]; single oral dose 80 mg): 118 ng/mL
- Tmax ([2]; single oral dose 80 mg): 1.2 h
- AUC(0-inf) ([2]; single oral dose 160 mg): 739 ng·h/mL
- Cmax ([2]; single oral dose 160 mg): 125 ng/mL
- Tmax ([2]; single oral dose 160 mg): 1.5 h
- effectiveness as a modulator of the 5-HT2A serotonin receptor [3]: especially effective as a modulator of the 5-HT2A serotonin receptor

Compound: O=CN1CCC(C(=O)NCCN2CCC(=C3c4ccccc4C=Cc4ccccc43)CC2)CC1 [AT-1015]
- 14.9% reduction in saphenous sensory conduction velocity (diabetic rats): completely reversed
- 44.7% reduction in sciatic endoneurial blood flow (diabetic rats): completely reversed

Compound: O=C(c1ccc(F)cc1)C1CCN(CCn2c(=O)[nH]c3ccccc3c2=O)CC1 [ketanserin]
- JC virus infection of human glial cells (JC virus): inhibited JC virus infection
- inverse agonist activity at 5-HT2A (5-HT2A): have inverse agonist activity

Compound: Cc1nc2sccn2c(=O)c1CCN1CCC(=C(c2ccc(F)cc2)c2ccc(F)cc2)CC1 [ritanserin]
- 14.9% reduction in saphenous sensory conduction velocity (diabetic rats): completely reversed
- 44.7% reduction in sciatic endoneurial blood flow (diabetic rats): completely reversed
- JC virus infection of human glial cells (JC virus): inhibited JC virus infection
- inverse agonist activity at 5-HT2A (5-HT2A): have inverse agonist activity

Compound: COc1cccc(CCc2ccccc2OCC(CN(C)C)OC(=O)CCC(=O)O)c1 (stereo not drawn) [sarpogrelate]
- IOP [4]: significantly lower IOP
- 14.9% reduction in saphenous sensory conduction velocity (diabetic rats): completely reversed
- 44.7% reduction in sciatic endoneurial blood flow (diabetic rats): completely reversed
- urinary albumin excretion level [5]: significantly reduced
